Source: patent US20100216779A1 (GLAXOSMITHKLINE LLC, priority 2007, published 2010)

Test system: various cell lines of different tumor origins
Test: Inhibition of cell proliferation, InCell Analyzer assay
Format: cell-based
Experimental: C. Inhibition of Cell Proliferation
For InCell Analyser assay, various cell lines of different tumor origins were grown to 70-80% confluency in appropriate culture media containing 10% fetal bovine serum at 37° C. in a 5% CO2 incubator. On day-1, cells were seeded at 2 densities in 384-well plates and incubated at 37° C. overnight. Stock compound plates were prepared in advance which contained dimethyl sulfoxide (DMSO) alone and a 9-point half-log decreasing dose range of the compound of Example 22 in DMSO. The compound plates were stored at −80° C. and each plate was only thawed once and used. On day 0, the main assay plates received compound or DMSO via a sonic delivery system (ECHO). The highest final concentration of compound of the dose range in the culture plates was 10 uM. These plates were cultured at 37° C. for 3 days. […] On day 3, the compound treated plates were stained and fixed to measure proliferation, apoptosis, and mitotic index using an InCell1000 analyser. A nuclear stain was used to identify cells in the wells. By counting the number of nuclei, the proliferation index of compound treated groups were calculated as a percentage relative to the DMSO control, which was set to 100%. The IC50 values were calculated using model 205 in ExcelFit.

Q: What does the source list for COc1cc(N2CCC(N3CCCCC3)CC2)ccc1Nc1nccc(-c2c(-c3cccc(C(=O)Nc4c(F)cccc4F)c3)nc3ccccn23)n1 [Example 22, 3-[3-(2-{[4-(1,4′-bipiperidin-1′-yl)-2-(methyloxy)phenyl]amino}-4-pyrimidinyl)imidazo[1,2-a]pyridin-2-yl]-N-(2,6-difluorophenyl)benzamide]?
A: IC50 (5637, Bladder): > 5 µM; IC50 (A7, Skin): 1 to 5 µM; IC50 (AGS, Stomach): 1 to 5 µM; IC50 (B-cell, BC-1, lymphoma - B cell unspecified): 1 to 5 µM; IC50 (B-cell, BC-2, lymphoma - B cell unspecified): 1 to 5 µM; IC50 (B-cell, BC-3, lymphoma - B cell unspecified): 1 to 5 µM; IC50 (B-cell, DB, lymphoma - diffuse large B cell): 1 to 5 µM; IC50 (C3A, Liver): 1 to 5 µM; IC50 (C32TG, Skin): 1 to 5 µM; IC50 (C-4I, Cervix): 1 to 5 µM; IC50 (CEM/C1, CEM/C1, acute lymphoblastic leukaemia): > 5 µM; IC50 (CESS, AML): > 5 µM; IC50 (CML-T1, CML-T1, CML blast phase): < 1 µM; IC50 (COLO 704, COLO-704, Ovary): > 5 µM; IC50 (CRO-AP5, CRO-AP5, lymphoma - B cell unspecified): > 5 µM; IC50 (DK-MG, glioma): 1 to 5 µM; IC50 (EM-2, CML blast phase): > 5 µM; IC50 (ES2, Ovary): 1 to 5 µM; IC50 (GCT, Sarcoma): 1 to 5 µM; IC50 (H4, glioma): > 5 µM; IC50 (HN5, H&N): 1 to 5 µM; IC50 (HOS, Sarcoma): < 1 µM; IC50 (HT-3, Cervix): > 5 µM; IC50 (Homo sapiens, 639-V, Bladder): 1 to 5 µM; IC50 (Homo sapiens, 647-V, Bladder): 1 to 5 µM; IC50 (Homo sapiens, 769-P, Kidney): 1 to 5 µM; IC50 (Homo sapiens, 786-0, 786-0, Kidney): 1 to 5 µM; IC50 (Homo sapiens, A101D, Skin): 1 to 5 µM; IC50 (Homo sapiens, A 172, A172, glioma): 1 to 5 µM; IC50 (Homo sapiens, A204, A204, Sarcoma - rhabdomyosarcoma): 1 to 5 µM; IC50 (Homo sapiens, A498, A-498, Kidney): 1 to 5 µM; IC50 (Homo sapiens, A673, A673, Sarcoma): < 1 µM; IC50 (Homo sapiens, A2780, A2780, Ovary): < 1 µM; IC50 (Homo sapiens, A-375, A375, Skin): 1 to 5 µM; IC50 (Homo sapiens, A-427, A427, Lung): 1 to 5 µM; IC50 (Homo sapiens, A-431, A-431, Skin): < 1 µM; IC50 (Homo sapiens, ACHN, Kidney): 1 to 5 µM; IC50 (Homo sapiens, AN3-CA, AN3CA, Uterus): 1 to 5 µM; IC50 (Homo sapiens, ARH-77, ARH-77, Myeloma - plasma cell): 1 to 5 µM; IC50 (Homo sapiens, ASPC1, AsPC-1, Pancreas): < 1 µM; IC50 (Homo sapiens, BE(2)-C, BE(2)C, Brain): < 1 µM; IC50 (Homo sapiens, BFTC-905, BFTC-905, Bladder): < 1 µM; IC50 (Homo sapiens, BHT-101, BHT-101, Thyroid): > 5 µM; IC50 (Homo sapiens, BPH-1, BPH1, Prostate): 1 to 5 µM; IC50 (Homo sapiens, BT-20, BT-20, Breast): 1 to 5 µM; IC50 (Homo sapiens, BT-474, BT474, Breast): 1 to 5 µM; IC50 (Homo sapiens, BV-173, BV-173, CML blast phase): 1 to 5 µM; IC50 (Homo sapiens, BXPC-3, BxPC-3, Pancreas): > 5 µM; IC50 (Homo sapiens, BeWo, Placenta): 1 to 5 µM; IC50 (Homo sapiens, C-4-II, C-4II, Cervix): 1 to 5 µM; IC50 (Homo sapiens, C-33-A, C-33A, Cervix): 1 to 5 µM; IC50 (Homo sapiens, CAKI-1, Caki-1, Kidney): > 5 µM; IC50 (Homo sapiens, CAKI-2, Caki-2, Kidney): 1 to 5 µM; IC50 (Homo sapiens, CAL-27, Cal27, H&N): > 5 µM; IC50 (Homo sapiens, CAL-54, CAL-54, Kidney): 1 to 5 µM; IC50 (Homo sapiens, CAL-62, CAL-62, Thyroid): 1 to 5 µM; IC50 (Homo sapiens, CAPAN-1, Capan-1, Pancreas): < 1 µM; IC50 (Homo sapiens, CCF-STTG1, CCF-STTG1, glioma): 1 to 5 µM; IC50 (Homo sapiens, CGTH-W-1, CGTH-W-1, Thyroid): 1 to 5 µM; IC50 (Homo sapiens, CHL-1, CHL-1, Skin): 1 to 5 µM; IC50 (Homo sapiens, CHP-212, CHP-212, neuroblastoma): < 1 µM; IC50 (Homo sapiens, COLO-829, Colo-829, Skin): > 5 µM; IC50 (Homo sapiens, CRO-AP2, CRO-AP2, lymphoma - B cell unspecified): 1 to 5 µM; IC50 (Homo sapiens, Caov-3, CAOV-3, Ovary): 1 to 5 µM; IC50 (Homo sapiens, Capan-2, Capan-2, Pancreas): 1 to 5 µM; IC50 (Homo sapiens, D283 Med, D283Med, medulloblastoma): 1 to 5 µM; IC50 (Homo sapiens, DBTRG-05MG, glioma): > 5 µM; IC50 (Homo sapiens, DU-4475, DU4475, Breast): 1 to 5 µM; IC50 (Homo sapiens, Detroit 562, Detroit562, H&N): 1 to 5 µM; IC50 (Homo sapiens, DoTc2-4510, DoTc2-4510, Cervix): > 5 µM; IC50 (Homo sapiens, EFM-19, EFM-19, Breast): 1 to 5 µM; IC50 (Homo sapiens, EKVX, Lung): 1 to 5 µM; IC50 (Homo sapiens, FaDu, H&N): 1 to 5 µM; IC50 (Homo sapiens, G-401, G-401, kidney): 1 to 5 µM; IC50 (Homo sapiens, G-402, G-402, Kidney): 1 to 5 µM; IC50 (Homo sapiens, GDM-1, GDM-1, AML): < 1 µM; IC50 (Homo sapiens, HCC38, HCC38, Breast): 1 to 5 µM; IC50 (Homo sapiens, HCC70, HCC70, Breast): 1 to 5 µM; IC50 (Homo sapiens, HCC1143, HCC1143, Breast): 1 to 5 µM; IC50 (Homo sapiens, HCC1395, HCC1395, Breast): 1 to 5 µM; IC50 (Homo sapiens, HCC1937, HCC1937, Breast): > 5 µM; IC50 (Homo sapiens, HCC1954, HCC1954, Breast): 1 to 5 µM; IC50 (Homo sapiens, HCC2157, HCC2157, Breast): > 5 µM; IC50 (Homo sapiens, HCC2218, HCC2218, Breast): > 5 µM; IC50 (Homo sapiens, HCC 2998, HCC-2998, Colon): 1 to 5 µM; IC50 (Homo sapiens, HEC-1-A, Uterus): > 5 µM; IC50 (Homo sapiens, HEC-1B, HEC-1-B, Uterus): 1 to 5 µM; IC50 (Homo sapiens, HEL 92.1.7, HEL-92.1.7, erythroleukemia): > 5 µM; IC50 (Homo sapiens, HMCB, Skin): 1 to 5 µM; IC50 (Homo sapiens, HOP-62, HOP-62, Lung): > 5 µM; IC50 (Homo sapiens, HOP-92, HOP-92, Lung): 1 to 5 µM; IC50 (Homo sapiens, HPAC, Pancreas): < 1 µM; IC50 (Homo sapiens, HPAF-II, HPAFII, Pancreas): > 5 µM; IC50 (Homo sapiens, HT1197, HT1197, Bladder): > 5 µM; IC50 (Homo sapiens, HT-29, HT-29, Colon): < 1 µM; IC50 (Homo sapiens, HT-1080, HT-1080, Sarcoma - fibrosarcoma): < 1 µM; IC50 (Homo sapiens, HT-1376, HT1376, Bladder): > 5 µM; IC50 (Homo sapiens, HeLa, Cervix): > 5 µM; IC50 (Homo sapiens, Hep3B, Liver): 1 to 5 µM; IC50 (Homo sapiens, HepG2, HepG2, Liver): 1 to 5 µM; IC50 (Homo sapiens, Hs746T, Stomach): > 5 µM; IC50 (Homo sapiens, HuP-T4, HuP-T4, Pancreas): > 5 µM; IC50 (Homo sapiens, HuT78, Hut78, lymphoma - cutaneous T cell): 1 to 5 µM; IC50 (Homo sapiens, IGROV-1, IGROV1, Ovary): < 1 µM; IC50 (Homo sapiens, J-RT3-T3-5, J.RT3-T3.5, acute lymphoblastic leukaemia): 1 to 5 µM; IC50 (Homo sapiens, JEG-3, JEG-3, Placenta): < 1 µM; IC50 (Homo sapiens, K562, K-562, CML): > 5 µM; IC50 (Homo sapiens, KATO III, KATOIII, Stomach): > 5 µM; IC50 (Homo sapiens, KM12, KM12, Colon): > 5 µM; IC50 (Homo sapiens, LOX IMVI, Skin): > 5 µM; IC50 (Homo sapiens, LS174T, Colon): 1 to 5 µM; IC50 (Homo sapiens, LS-1034, LS1034, Colon): < 1 µM; IC50 (Homo sapiens, MC-IXC, neuroblastoma): < 1 µM; IC50 (Homo sapiens, MCF7, MCF7, Breast): < 1 µM; IC50 (Homo sapiens, MCF-10A, MCF10a, Breast (Normal)): < 1 µM; IC50 (Homo sapiens, MDA-MB-175-VII, Breast): 1 to 5 µM; IC50 (Homo sapiens, MDA-MB-231, MDA-MB-231, Breast): 1 to 5 µM; IC50 (Homo sapiens, MDA-MB-435, MDA-MB-435, Breast (Melanoma)): 1 to 5 µM; IC50 (Homo sapiens, MDA-MB-453, MDA-MB-453, Breast): 1 to 5 µM; IC50 (Homo sapiens, MDA-MB-468, MDA-MB-468, Breast): 1 to 5 µM; IC50 (Homo sapiens, MES-SA, Sarcoma): > 5 µM; IC50 (Homo sapiens, MIA PaCa-2, MiaPaCa, Pancreas): < 1 µM; IC50 (Homo sapiens, MOLT-16, MOLT-16, acute lymphoblastic leukaemia): 1 to 5 µM; IC50 (Homo sapiens, MV4-11, MV-4-11, acute leukaemia of ambiguous lineage): 1 to 5 µM; IC50 (Homo sapiens, Malme-3M, Skin): > 5 µM; IC50 (Homo sapiens, NCI-H69, NCI-H69, Lung): 1 to 5 µM; IC50 (Homo sapiens, NCI-H82, NCI-H82, Lung): 1 to 5 µM; IC50 (Homo sapiens, NCI-H146, NCI-H146, Lung): > 5 µM; IC50 (Homo sapiens, NCI-H209, NCI-H209, Lung): 1 to 5 µM
